These results are taken from PMC8010219, “Molecular basis for the interaction of cellular retinol binding protein 2 (CRBP2) with nonretinoid ligands” (Journal of Lipid Research, 2021).

In experiment [1] the target is T1, human CRBP2 (Homo sapiens, UniProt P50120).
T1 construct: inferred from the Ni-NTA purification; made in house; host or cells: Escherichia coli BL21(DE3)
T1 sequence (P50120 1-134): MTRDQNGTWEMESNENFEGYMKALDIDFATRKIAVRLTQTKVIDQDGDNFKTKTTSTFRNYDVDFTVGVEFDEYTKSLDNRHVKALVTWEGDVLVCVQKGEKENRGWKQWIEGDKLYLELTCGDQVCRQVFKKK
Description: Chromophore (atROL) replacement fluorescence titration of holo-CRBP2. The following applies: for Kd: holo-CRBP2 titrated with ligand, 25°C, pH 7.4, average of at least three independent titrations, mean ± SD; for fold decrease in affinity (increase in Kd) as compared with 2-AG: ratio of Kd values versus 2-AG. In kind it is binding. How it is done:
(§1) The chromophore replacement assay was performed as described by Silvaroli et al. ([12]). CRBP2 in complex with atROL was excited with photons at a wavelength of 285 nm. Fluorescence emission was monitored at 350 and 480 nm. Titration with an alternative ligand causes liberation of atROL from the binding pocket and lack of fluorescence resonance energy transfer between the tryptophan residues and the retinoid moiety. The net effect is decrease in the fluorescence signal at 480 nm and concomitant increase at 350 nm (Fig. 1A, B). The experiments were performed on PerkinElmer Life Science LS55 spectrofluorometer at 25°C, using a 1 cm quart cuvette. Three microliters of buffer, 67 mM phosphate-buffered saline (pH 7.4%), 5% glycerol (v/v) containing 1 μg/ml of CRBP2 were dispensed into the cuvette. Increasing concentrations of tested compounds were delivered in acetonitrile. […] The obtained fluorescence spectra corrected for the background. Analysis of the changes in the maximum emission values at the different concentrations of ligands was used to calculate Kd values using the saturation single ligand binding model (SigmaPlot 11 software package; Systat Software). Each Kd listed in Table 1 represents an average value obtained from at least three independent titrations.

Experiment [2] concerns the target T1, human CRBP2. Details: method as in PMID 32195347. The following applies: holo-CRBP2 titrated with ligand, cited from earlier work.
A further experiment deals with CRBP1. Details: method as in PMID 27830500. Conditions: atROL binding to CRBP1; cited from earlier work.
The target of experiment [3] is T1, human CRBP2. Kind of experiment: X-ray crystal structures of CRBP2 in complex with ligands (enantiomer seen in binding pocket). The following applies: racemic mixture used for crystallization. How it is done:
The crystallization conditions were identical to those published by Lee et al. ([9]). Human CRBP2 in complexes with nonretinoid ligands were crystallized using the sitting drop vapor diffusion method. Prior to setting up crystallization drops, CRBP2 (9 mg/ml) was incubated with 50 μM of ligand in 10 mM Tris-HCl (pH 8.0) and 150 mM NaCl for 20 min on ice. Protein samples were mixed in a 1:1 ratio with 1 μl of 0.1 M Tris-HCl (pH 8%) and 22–28% polyethylene glycol 3350. The wells were sealed and stored at room temperature. Crystals were collected, cryoprotected in 10% glycerol, 10% polyethylene glycol 2000 (v/v), and flash frozen in liquid nitrogen.
X-ray diffraction data were collected at the Advanced Photon Source Northeastern Collaborative Access Team 24-ID-C and 24-ID-E beamlines. Data reduction was performed using iMosflm software package ([17]). The structures were solved by molecular replacement with PHASER_MR ([18]) and the refined model of CRBP2 [Protein Data Bank (PDB) accession code: 6BTI] as a search model. Adjustments to the protein model were made with COOT ([19]), and the initial model was refined with PHENIX ([20]). […] The coordinates and structure factors for each of the structure analyzed in this report were deposited in the PDB under the following accession codes: 7JVG, 7JVY, 7JWD, 7JWR, 7K3I, 7JX2, and 7JZ5 (Table 2).

A further experiment concerns the target T2, CRBP2^T51I/V62M (Homo sapiens, UniProt P50120, T52I/V63M).
T2 construct: made in house; host or cells: Escherichia coli BL21(DE3)
T2 sequence (P50120 1-134 T52I/V63M): T1 sequence (P50120 1-134) with T52I, V63M
Description: Chromophore (atROL) replacement fluorescence titration of the mutant protein. In kind it is binding.
Source text: To introduce substitute mutations T51/I and V62/M, cDNA of CRBP2 was cloned into pCR 2.1 vector (Thermo Fisher Scientific). The mutations were introduced by PCR using 5’ phosphorylated primers of the following sequences: T51/I: forward, […]; reverse, […]; V62/M: forward, […]; reverse, […]. The presence of desired substitutions was verified by sequencing. To obtain mutated proteins, their cDNAs harboring these changes were cloned into pET3b vector and expressed and purified as described above.
as §1, with “cuvette.” for “cuvette. Increasing concentrations of tested compounds were delivered in acetonitrile.”, “Analysis of the changes in the maximum emission values at the different concentrations of ligands was used to calculate Kd values using the saturation single ligand binding model (SigmaPlot 11 software package; Systat Software). Each Kd listed in Table 1 represents an average value obtained from at least three independent titrations.” left out

Changes are numbered by the printed parent chain. Like-named read-outs stand apart in the source and are kept apart here.

As to `CCCCCCCCCCCC(=O)OC(CO)CO` [2-LaG, 2-Lauroyl glycerol], on human CRBP2 [1], the dissociation constant (Kd) – broadly, the constant that tells how readily two partners part at equilibrium – was found to be 172 ± 8.8 nM and the “fold decrease in affinity (increase in Kd) as compared with 2-AG” value is “over 6 fold”.

`CCCCC/C=C\C/C=C\CCCCCCCC(=O)OCC(O)CO` (stereo not drawn) [1-LG, 1-Linoleoyl glycerol] gave a Kd at human CRBP2 [1] of 97.1 ± 27.6 nM.

Take `CCCCC/C=C\C/C=C\CCCCCCCC(=O)OC(CO)CO` [2-LG, 2-Linoleoyl glycerol]: the Kd at human CRBP2 [2] (read-out: Kd) was 40 ± 4.4 nM.

`CCCCCCCCCC(=O)OCC(O)CO` (stereo not drawn) [1-DG, 1-Decanoyl glycerol]: on human CRBP2 [1], the Kd amounted to 780 ± 86.5 nM and the “fold decrease in affinity (increase in Kd) as compared with 2-AG” value was 29 fold.

For `CCCCCCCC/C=C\CCCCCCCC(=O)OC(CO)CO` [2-OG, 2-Oleoyl glycerol], the Kd on human CRBP2 [2] (read-out: Kd) was 65.4 ± 4.4 nM.

`CCCCC/C=C\C/C=C\C/C=C\C/C=C\CCCCOC(CO)CO` [2-AGE, 2-Arachidonoyl glycerol ether] yielded a Kd on human CRBP2 [1] of 45.7 ± 2.7 nM.

Consider `CC1=C(/C=C/C(C)=C/C=C/C(C)=C/CO)C(C)(C)CCC1` [atROL, all-trans-retinol], for which, on CRBP1, the dissociation constant (Kd) was approximately 10 nM.

Turning to `CCCCC/C=C\C/C=C\C/C=C\C/C=C\CCCC(=O)OCC(O)CO` (stereo not drawn) [1-AG, 1-Arachidonoyl glycerol], the “enantiomer exclusively present in the binding pocket (electron density)” value on human CRBP2 [3] is listed as “S-enantiomer”. The Kd on human CRBP2 [2] is 37.9 ± 3.3 nM.

Regarding `CCCCCCCCCCCCCCCCOCC(O)CO` (stereo not drawn) [1-O-HG, 1-O-hexadecyl glycerol], the Kd on human CRBP2 [1] worked out at 153 ± 7.3 nM.

Regarding `CCCCCCCCCCCCCCCC(=O)OC(CO)CO` [2-PG, 2-Palmitoyl glycerol], the Kd on human CRBP2 [1] is 51.2 ± 7.7 nM.

As for `CCCCC/C=C\C/C=C\C/C=C\C/C=C\CCCCCC(=O)O` [ADA, Docosatetraenoic acid], at human CRBP2 [1], the Kd was 217 ± 14.4 nM and the “fold decrease in affinity (increase in Kd) as compared with 2-AG” value was “eight times higher”.

For `CCCCCCCCCCCCCCCCCCCC(=O)OCC(O)CO` (stereo not drawn) [1-ArG, 1-Arachidoyl glycerol], at human CRBP2 [1], binding was put at a Kd of 133 ± 33.1 nM and the “fold decrease in affinity (increase in Kd) as compared with 2-AG” value was approximately 5 fold.

Turning to `CCCCCCCCCCCCCCCCCC(=O)OC(CO)CO` [2-SG, 2-Stearoyl glycerol], on human CRBP2 [1], binding was characterised by a dissociation constant (Kd) of 54.8 ± 9.8 nM and the “fold decrease in affinity (increase in Kd) as compared with 2-AG” value amounted to 2 fold.

`CCCCC/C=C\C/C=C\C/C=C\C/C=C\CCCC(=O)NCCO` [AEA, Arachidonoyl ethanolamide]: at human CRBP2 [1], the “fold decrease in affinity (increase in Kd) as compared with 2-AG” value is approximately 25 fold. Further, the Kd on human CRBP2 [2] (read-out: Kd) is 663 ± 24 nM.

Regarding `CCCCC/C=C\C/C=C\C/C=C\C/C=C\CCCC(=O)SCC(O)CO` (stereo not drawn) [1-ASG, Arachidonoyl-1-thio-glycerol], the “enantiomer exclusively present in the binding pocket (electron density)” value at human CRBP2 [3] was “R-enantiomer”. For the same compound, the “fold increase of the Kd value on substitution of the ester group with a thioester bond” value on human CRBP2 [1] (as compared with 1-AG) is reported as approximately 2 fold. The compound further gave a Kd on human CRBP2 [1] of 89.3 ± 14.3 nM.

For the compound `CCCCC/C=C\C/C=C\C/C=C\C/C=C\CCCC(=O)OC(CO)CO` [2-AG, 2-Arachidonoyl glycerol], the Kd at CRBP2^T51I/V62M (CRBP2 T51I/V62M double mutant) was 447 ± 46.1 nM; at human CRBP2 [2] it was 27.1 ± 2.5 nM. The “fold decrease in the affinity at the mutant” value at CRBP2^T51I/V62M (CRBP2^T51I/V62M versus WT CRBP2) was “over 16 fold”.
